This is an account of results in PMC3707081, “Hypothemicin, a fungal natural product, identifies therapeutic targets in Trypanosoma brucei” (eLife, 2013).

In this experiment the target is T1, TbCLK1 (Trypanosoma brucei, UniProt Q382U0).
T1 construct: gene Tb11.01.4230; full-length, recombinant from E. coli (pET100)
The experiment in a line: in vitro kinase assay (γ-32P-ATP, myelin basic protein), […] min pre-incubation with […] ATP; also target engagement in intact parasites by competition with probe […]. It is filed as biochemical.

T1 sequence (Q382U0 entry or part of it): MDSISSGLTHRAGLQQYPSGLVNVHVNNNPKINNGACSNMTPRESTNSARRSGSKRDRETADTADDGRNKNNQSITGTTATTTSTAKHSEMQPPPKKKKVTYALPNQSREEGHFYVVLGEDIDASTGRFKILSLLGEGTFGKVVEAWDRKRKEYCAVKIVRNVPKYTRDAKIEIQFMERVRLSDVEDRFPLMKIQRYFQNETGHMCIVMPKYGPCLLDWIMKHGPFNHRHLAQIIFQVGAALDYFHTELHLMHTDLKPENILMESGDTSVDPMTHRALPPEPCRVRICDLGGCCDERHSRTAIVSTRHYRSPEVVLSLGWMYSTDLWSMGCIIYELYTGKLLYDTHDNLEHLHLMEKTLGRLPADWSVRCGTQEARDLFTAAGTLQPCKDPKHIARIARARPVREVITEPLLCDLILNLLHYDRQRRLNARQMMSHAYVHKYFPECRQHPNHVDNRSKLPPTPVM

As usually defined, the IC50 is the concentration that inhibits the measured activity by half. A low value points to higher potency. `COc1cc(O)c2c(c1)[C@H]1O[C@@H]1C[C@H](O)[C@H](O)C(=O)/C=C\C[C@H](C)OC2=O` [compound 1, hypothemycin]: the IC50 worked out at 150 nM.
